Measured values as given in patent US10301292B2, “Bicyclic compound” (Takeda Pharmaceutical Company Limited, priority 2014, dated 2019).

Columns and labels:
[1] = biological target: T1, human ACC1 (Homo sapiens, UniProt Q13085); assay: Measurement of ACC1 inhibitory activity (Malonyl-CoA production, RapidFire-mass spectrometry); format: biochemical; conditions: 10 μM of the test compound; recombinant human ACC1; read-out: ACC1 inhibitory rate (%) at 10 μM
T1 construct: His tag (from vector pFAST-BacHTc; protein captured on Ni-NTA) (N); made in house; host or cells: SF-9 insect cells, recombinant baculovirus BAC-ACC1
Outline: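 Sf9-expressed His-tagged human ACC1, diluted to 0.2 μg/ml in HEPES pH 7.5/MgCl2/citrate/DTT/0.001% BSA, was preincubated 60 min at RT with compound. Reaction started with substrate solution (50 mM KHCO3, 200 μM ATP, 200 μM acetyl-CoA), ran 30 min at RT, then was formic acid-quenched. Malonyl-CoA was quantified by RapidFire-MS against malonyl-13C3-CoA.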

[2] = system: HCT116 cells; assay: Growth inhibitory activity on HCT116 cell (CellTiter-Glo); format: cell-based; conditions: Homo sapiens, HCT-116, 72 h, table head: 10 μM (text b2498: 1 μM), 3 days incubation, read-out: HCT116 cell proliferation inhibitory rate (%) at 10 μM
Outline: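 HCT116 cells in RPMI with 2% FBS, 900 cells/well, treated the day after seeding and incubated 3 days at 37 °C, 5% CO2. Viability read by CellTiter-Glo luminescence. Percent inhibition calculated relative to untreated wells, with cell-free wells subtracted as background.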

**Q.** What does the source list for `CC(NC(N)=O)c1ccc2nc(-c3ccc(Oc4cccc(OCC5CC5)c4)nc3)oc2c1` (centres unmarked) [Example 98, 1-(1-(2-(6-(3-(cyclopropylmethoxy)phenoxy)pyridin-3-yl)-1,3-benzoxazol-6-yl)ethyl)urea]?
**A.** inhibition at 10 µM [1]: 98%; inhibition at 10 µM [2]: 25%
